Test results reported in the supplement of paper PMC10331698.
± gives the standard deviation of the averaged measurements.

Experiments:
Assay in all cases: level (log10 ratio to DMSO vehicle control); higher = higher biomarker level / cell amount than vehicle control
[1] = compound: NS(=O)(=O)C(F)(F)C(F)(F)C(F)(F)C(F)(F)C(F)(F)C(F)(F)F [Perfluorohexanesulfonamide]; details: in DMSO
Protocol: (§1)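 BioMAP Diversity Plus panel of 12 human primary cell co-culture systems (3C, 4H, LPS, SAg, BT, BF4T, BE3C, CASM3C, HDF3CGF, KF3CT, MyoF, Mphg). Compounds were added 1 h before stimulation and left for 24 h (MyoF 48 h; BT 72 h for soluble read-outs or 6 d for IgG). Biomarkers were read by ELISA, cytotoxicity by SRB, PBMC viability and proliferation by Alamar Blue. Each well value was divided by the mean of 8 DMSO control wells on the same plate and log10 transformed; duplicate blinded samples were tested at 4 concentrations.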

[2] = compound: C=C(C)C(=O)OCCC(F)(F)C(F)(F)C(F)(F)C(F)(F)C(F)(F)C(F)(F)F [6:2 Fluorotelomer methacrylate]; details: in DMSO
Protocol: as §1

[3] = compound: FC(F)(F)C(F)(F)C(F)(F)C(F)(F)C(F)(F)C(F)(F)C(F)(F)I [1-Iodopentadecafluoroheptane]; details: in DMSO
Protocol: as §1

Octafluoroadipamide = compound: NC(=O)C(F)(F)C(F)(F)C(F)(F)C(F)(F)C(N)=O [Octafluoroadipamide]; details: in DMSO
Protocol: as §1

[4] = compound: O=S(=O)(O)CCC(F)(F)C(F)(F)C(F)(F)C(F)(F)C(F)(F)C(F)(F)F [6:2 Fluorotelomer sulfonic acid]; details: in DMSO
Protocol: as §1

[5] = compound: C=CC(=O)OCC(F)(F)C(F)(F)C(F)(F)COC(=O)C=C [1H,1H,5H,5H-Perfluoro-1,5-pentanediol diacrylate]; details: 6700 nM; in DMSO
Protocol: as §1

Row | Test System | level (log10) ([1]; 6700 nM) | level (log10) ([1]; 20000 nM) | level (log10) ([1]; 60000 nM) | level (log10) ([2]; 6700 nM) | level (log10) ([2]; 20000 nM) | level (log10) ([2]; 60000 nM) | level (log10) ([3]; 6700 nM) | level (log10) ([3]; 20000 nM) | level (log10) (Octafluoroadipamide; 6700 nM) | level (log10) (Octafluoroadipamide; 20000 nM) | level (log10) (Octafluoroadipamide; 60000 nM) | level (log10) ([4]; 6700 nM) | level (log10) ([4]; 20000 nM) | level (log10) ([4]; 60000 nM) | level (log10) [5]
1 | lMphg:CD62E/E-Selectin | -0.02 ± 0.031 | -0.061 ± 0.0014 | -0.191 ± 0.013 | -0.0005 ± 0.015 | -0.003 ± 0.048 | -0.0135 ± 0.011 | 0.016 ± 0.014 | 0.0355 ± 0.0078 | 0.0095 ± 0.00071 | 0.002 ± 0.0042 | 0.007 ± 0.016 | -0.0225 ± 0.018 | -0.039 ± 0.0071 | 0 ± 0.023 | -0.0595 ± 0.00071
2 | lMphg:CD69 | -0.02 ± 0.023 | -0.066 ± 0.02 | -0.169 ± 0.0085 | -0.0125 ± 0.049 | -0.046 ± 0.0028 | -0.0915 ± 0.019 | -0.0455 ± 0.043 | -0.079 ± 0.062 | -0.0425 ± 0.052 | -0.027 ± 0.042 | 0.0275 ± 0.063 | -0.034 ± 0.04 | -0.065 ± 0.054 | -0.073 ± 0.025 | -0.0015 ± 0.0078
3 | lMphg:CD106/VCAM-1 | -0.0155 ± 0.025 | -0.012 ± 0.024 | -0.0805 ± 0.018 | -0.024 ± 0.013 | -0.007 ± 0.021 | -0.021 ± 0.011 | -0.0025 ± 0.0064 | -0.007 ± 0.017 | 0.014 ± 0.013 | 0.019 ± 0.0085 | 0.0125 ± 0.0021 | -0.007 ± 0.011 | -0.0125 ± 0.0092 | -0.022 ± 0.0071 | -0.0615 ± 0.025
4 | lMphg:CXCL8/IL-8 | 0.05 ± 0.014 | 0.083 ± 0.011 | 0.146 ± 0.0085 | 0.0275 ± 0.005 | 0.0205 ± 0.0092 | 0.0425 ± 0.026 | -0.018 ± 0.0071 | 0.0165 ± 0.019 | 0.003 ± 0.054 | -0.0095 ± 0.069 | 0.0455 ± 0.026 | -0.0115 ± 0.005 | 0.022 ± 0.014 | 0.0725 ± 0.0092 | 0.03 ± 0.0099
5 | lMphg:IL-1alpha | 0.019 ± 0.052 | 0.114 ± 0.016 | 0.148 ± 0.0028 | -0.0445 ± 0.076 | -0.03 ± 0.02 | -0.0305 ± 0.069 | 0.03 ± 0.045 | 0.014 ± 0.0085 | -0.0135 ± 0.016 | -0.044 ± 0.016 | -0.014 ± 0.065 | 0.0395 ± 0.05 | 0.0235 ± 0.035 | 0.0215 ± 0.039 | 0.045 ± 0.024
6 | lMphg:M-CSF | -0.051 ± 0.072 | -0.113 ± 0.037 | -0.119 ± 0.051 | 0.0215 ± 0.0064 | -0.016 ± 0.0071 | -0.0125 ± 0.025 | -0.0015 ± 0.042 | 0.015 ± 0.0014 | -0.017 ± 0.0028 | -0.0065 ± 0.0035 | 0.0045 ± 0.00071 | 0.0045 ± 0.0078 | -0.023 ± 0.028 | -0.0145 ± 0.0064 | -0.0245 ± 0.0035
7 | lMphg:SRB | -0.007 ± 0.0042 | -0.015 ± 0.0028 | -0.0645 ± 0.0064 | -0.0065 ± 0.025 | -0.0115 ± 0.015 | -0.0175 ± 0.00071 | -0.01 ± 0.0014 | -0.0015 ± 0.0021 | -0.004 ± 0.0014 | 0 ± 0.0042 | 0.008 ± 0.017 | -0.001 ± 0.011 | 0.0125 ± 0.019 | -0.002 ± 0.018 | 0.001 ± 0.0014
8 | lMphg:SRB-Mphg | 0.002 ± 0.0028 | -0.021 ± 0.0057 | -0.0625 ± 0.013 | 0.01 ± 0.011 | 0.0095 ± 0.0092 | 0.0105 ± 0.0021 | 0.005 ± 0.018 | 0.0125 ± 0.011 | -0.02 ± 0.027 | -0.0265 ± 0.018 | 0.003 ± 0.018 | 0.0065 ± 0.0064 | 0.0135 ± 0.0078 | 0.0025 ± 0.036 | 0.0135 ± 0.00071
9 | lMphg:sIL-10 | 0 ± 0.0071 | -0.142 ± 0.017 | -0.5835 ± 0.00071 | -0.01 ± 0.089 | -0.0545 ± 0.035 | 0.0135 ± 0.0035 | 0.004 ± 0.081 | -0.0995 ± 0.021 | -0.0295 ± 0.021 | -0.012 ± 0.11 | -0.1 ± 0.017 | -0.025 ± 0.037 | -0.015 ± 0.02 | -0.049 ± 0.0057 | -0.13 ± 0.035
